Source: patent publication US10434112B2, “Use of agonists of formyl peptide receptor 2 for treating dermatological diseases” (Allergan, Inc., priority 2013, dated 2019)

Target: human FPR2 receptor (Homo sapiens (Human), UniProt P25090)
Assay: FLIPR Ca+2 response in HEK-Gα16 cells stably expressing the human FPR2 receptor
Assay type: cell-based
Parameters: FPR2 (% eff): unit not given here
Conditions: Table 4; for FPR2 (% eff): value in brackets, given mostly as fraction
Protocol: FLIPR: HEK-Gα16 cells stably expressing the human FPR2 receptor was utilized. Cells were plated into 384-well poly-D-lysine coated plates at a density of 18,000 cells per well one day prior to use. The growth media was DMEM medium supplemented with 10% fetal bovine serum (FBS), 1% antibiotic-antimycotic, 50 μg/ml hygromycin, and 400 μg/ml geneticin. On the day of the experiment, the cells were washed twice with Hank's Balanced Salt Solution supplemented with 20 mM HEPES (HBSS/hepes buffer). The cells were then dye loaded with 2 μM Fluo-4 diluted in the HBSS/Hepes buffer and incubated at 37° C. for 40 minutes. Extracellular dye was removed by washing the cell plates four times prior to placing the plates in the FLIPR (Fluorometric Imaging Plate Reader, Molecular Devices). Ligands were diluted in HBSS/Hepes buffer and prepared in 384-well microplates. Data for Ca^+2 responses were obtained in relative fluorescence units.

Chain of human FPR2 receptor (P25090 whole entry): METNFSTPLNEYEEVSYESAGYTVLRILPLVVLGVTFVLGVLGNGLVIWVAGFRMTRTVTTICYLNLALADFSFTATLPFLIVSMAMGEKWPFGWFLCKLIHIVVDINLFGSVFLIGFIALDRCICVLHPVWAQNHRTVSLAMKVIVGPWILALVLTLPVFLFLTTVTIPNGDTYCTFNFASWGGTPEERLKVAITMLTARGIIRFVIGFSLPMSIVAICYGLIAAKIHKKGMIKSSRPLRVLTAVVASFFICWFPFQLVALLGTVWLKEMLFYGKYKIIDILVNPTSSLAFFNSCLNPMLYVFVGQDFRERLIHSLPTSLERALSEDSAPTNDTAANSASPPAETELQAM

| SMILES | FPR2 (% eff) | EC50 [nM] |
| --- | --- | --- |
| O=C(O)[C@@H]1C2CCC([C@@H]1C(=O)Nc1ccc(Br)cc1)C21CC1 (relative stereo) [Compound 14, rel-(2R,3S)-3-[(4-bromophenyl)carbamoyl]spiro [bicyclo[2.2.1]heptane-7,1′-cyclopropane]-2-carboxylic acid] | 0.90 | – |
| CCC1(CCc2ccccc2)NC(=O)N(NC(=O)Nc2ccc(Br)cc2)C1=O (stereo not drawn) [Compound 1, 1-(4-bromophenyl)-3-[4-ethyl-2,5-dioxo-4-(2-phenylethyl)imidazolidin-1-yl]urea] | 0.96 | – |
| CCC[C@H](NC(=O)Nc1ccc(Br)cc1)C(=O)NCC(=O)O [Compound 2, {[(2S)-2-{[(4-bromophenyl)carbamoyl]amino}pentanoyl]amino}acetic acid] | 0.91 | – |
| CC[C@H](C)[C@H](NC(=O)Nc1ccc(Br)cc1F)C(=O)O [Compound 5, (2S,3S)-2-{[(4-bromo-2-fluorophenyl)carbamoyl]amino}-3-methylpentanoic acid] | 0.96 | – |
| CC(C)C[C@H](NC(=O)Nc1ccc(Br)cc1)C(=O)NC(C)(C)C(=O)O [Compound 6, 2-{[(2S)-2-{[(4-bromophenyl)carbamoyl]amino}-4-methylpentanoyl]amino}-2-methylpropanoic acid] | 0.91 | – |
| CC(C)C[C@H](NC(=O)Nc1ccc(Br)cc1)C(=O)O [Compound 9, (2S)-2-{[(4-bromophenyl)carbamoyl]amino}-4-methylpentanoic acid] | 0.77 | – |
| O=C(Nc1ccc(Br)cc1)NC(Cc1ccccc1)C(=O)NC1CCCCNC1=O (stereo not drawn) [Compound 10, 2-{[(4-bromophenyl)carbamoyl]amino}-N-(2-oxoazepan-3-yl)-3-phenylpropanamide] | 0.89 | – |
| O=C(O)C1C(C(=O)Nc2ccc(I)cc2)C2C=CC1C21CC1 (stereo not drawn) [Compound 11, 3-[(4-iodophenyl)carbamoyl]spiro [bicyclo[2.2.1]heptane-7,1′-cyclopropane]-5-ene-2-carboxylic acid] | 1.00 | – |
| O=C(O)C1C(C(=O)Nc2ccc(Br)cc2)C2C=CC1C21CC1 (stereo not drawn) [Compound 12, 3-[(4-bromophenyl)carbamoyl]spiro [bicyclo[2.2.1]heptane-7,1′-cyclopropane]-5-ene-2-carboxylic acid] | 0.97 | – |
| CC(=O)c1ccc(NC(=O)Nc2ccc3c(c2)C(=O)N(CCc2c[nH]cn2)C(c2ccc(C#N)cc2)C3)cc1 (stereo not drawn) [Compound 13, 1-(4-acetylphenyl)-3-{3-(4-cyanophenyl)-2-[2-(1H-imidazol-4-yl)ethyl]-1-oxo-1,2,3,4-tetrahydroisoquinolin-7-yl}urea] | 0.80 | – |
| O=C(O)C1C(C(=O)Nc2ccc(I)cc2)C2CCC1C21CC1 (stereo not drawn) [Compound 15, 3-[(4-iodophenyl)carbamoyl]spiro [bicyclo[2.2.1]heptane-7,1′-cyclopropane]-2-carboxylic acid] | 0.87 | – |
| CSc1ccc(NC(=O)Nc2ccc3c(c2)C(=O)N(CCCN)C(c2ccc(C#N)cc2)C3)cc1 (stereo not drawn) [Compound 16, 1-[2-(3-aminopropyl)-3-(4-cyanophenyl)-1-oxo-1,2,3,4-tetrahydroisoquinolin-7-yl]-3-[4-(methylsulfanyl)phenyl]urea] | 0.70 | – |
| CSc1ccc(NC(=O)Nc2ccc3c(c2)C(=O)N(CCc2c[nH]cn2)C(c2ccc(C#N)cc2)C3)cc1 (stereo not drawn) [Compound 17, 1-{3-(4-cyanophenyl)-2-[2-(1H-imidazol-4-yl)ethyl]-1-oxo-1,2,3,4-tetrahydroisoquinolin-7-yl}-3-[4-(methylsulfanyl)phenyl]urea] | 0.92 | – |
| CS(=O)(=O)c1ccc(NC(=O)Nc2ccc3c(c2)C(=O)N(CCCN)C(c2ccc(C#N)cc2)C3)cc1 (stereo not drawn) [Compound 18, 1-[2-(3-aminopropyl)-3-(4-cyanophenyl)-1-oxo-1,2,3,4-tetrahydroisoquinolin-7-yl]-3-[4-(methylsulfonyl)phenyl]urea] | 0.86 | – |
| CS(=O)(=O)c1ccc(NC(=O)Nc2ccc3c(c2)C(=O)N(CCc2c[nH]cn2)C(c2ccc(C#N)cc2)C3)cc1 (stereo not drawn) [Compound 19, 1-{3-(4-cyanophenyl)-2-[2-(1H-imidazol-4-yl)ethyl]-1-oxo-1,2,3,4-tetrahydroisoquinolin-7-yl}-3-[4-(methylsulfonyl)phenyl]urea] | 1.00 | – |
| CSc1ccc(NC(=O)Nc2ccc3c(c2)C(=O)N(CCc2c[nH]cn2)C(c2ccco2)C3)cc1 (stereo not drawn) [Compound 23, 1-{3-(furan-2-yl)-2-[2-(1H-imidazol-4-yl)ethyl]-1-oxo-1,2,3,4-tetrahydroisoquinolin-7-yl}-3-[4-(methylsulfanyl)phenyl]urea] | 0.83 | – |
| C[S+]([O-])c1ccc(NC(=O)Nc2ccc3c(c2)C(=O)N(CCc2c[nH]cn2)C(c2ccc(F)cn2)C3)cc1 (stereo not drawn) [Compound 24, 1-{3-(5-fluoropyridin-2-yl)-2-[2-(1H-imidazol-4-yl)ethyl]-1-oxo-1,2,3,4-tetrahydroisoquinolin-7-yl}-3-[4-(methylsulfinyl)phenyl]urea] | 0.93 | – |
| CS(=O)(=O)c1ccc(NC(=O)Nc2ccc3c(c2)C(=O)N(CCc2c[nH]cn2)C(c2ccc(F)cn2)C3)cc1 (stereo not drawn) [Compound 25, 1-{3-(5-fluoropyridin-2-yl)-2-[2-(1H-imidazol-4-yl)ethyl]-1-oxo-1,2,3,4-tetrahydroisoquinolin-7-yl}-3-[4-(methylsulfonyl)phenyl]urea] | 1.0 | – |
| CSc1ccc(NC(=O)Nc2ccc3c(c2)C(=O)N(CCc2c[nH]cn2)C(c2ccc(Cl)o2)C3)cc1 (stereo not drawn) [Compound 27, 1-{3-(5-chlorofuran-2-yl)-2-[2-(1H-imidazol-4-yl)ethyl]-1-oxo-1,2,3,4-tetrahydroisoquinolin-7-yl}-3-[4-(methylsulfanyl)phenyl]urea] | 0.81 | – |

Continued, values first:

| FPR2 (% eff) | EC50 [nM] | SMILES |
| --- | --- | --- |
| 0.98 | < 1 | O=C(Nc1ccc(Br)cc1)[C@@H]1C2CCC([C@@H]1C(=O)O)C21CC1 (single isomer, unassigned) [Compound 44] |
| 0.91 | < 1 | NC(=O)C1C(C(=O)Nc2ccc(Br)cc2)C2CCC1C21CC1 (single isomer, unassigned; (-)) [Compound 45, (−) N-(4-bromophenyl)spiro[bicyclo [2.2.1]heptane-7,1′-cyclopropane]-2,3-dicarboxamide] |
| 98 | 1.4 | O=C(O)CNC(=O)[C@H](Cc1c[nH]c2ccccc12)NC(=O)Nc1ccc(Br)cc1 (stereo in doubt) [Compound 150, {[2-{[(4-bromophenyl)carbamoyl]amino}-3-(1H-indol-3-yl)propanoyl]amino}acetic acid] |
| 0.89 | – | CSc1ccc(NC(=O)Nc2ccc3c(c2)C(=O)N(CCc2c[nH]cn2)C(c2ccc(Cl)nc2)C3)cc1 (stereo not drawn) [Compound 28, 1-{3-(6-chloropyridin-3-yl)-2-[2-(1H-imidazol-4-yl)ethyl]-1-oxo-1,2,3,4-tetrahydroisoquinolin-7-yl}-3-[4-(methylsulfanyl)phenyl]urea] |
| 0.96 | 7 | CSc1ccc(NC(=O)C2C(C(=O)O)C3CCC2C32CC2)cc1 (stereo not drawn) [Compound 29, 3-{[4-(methylsulfanyl)phenyl]carbamoyl}spiro[bicyclo[2.2.1]heptane-7,1′-cyclopropane]-2-carboxylic acid] |
| 0.96 | – | NC(=O)C1C(C(=O)Nc2ccc(Br)cc2)C2CCC1C21CC1 (stereo not drawn) [Compound 30, N-(4-bromophenyl)spiro[bicyclo[2.2.1]heptane-7,1′-cyclopropane]-2,3-dicarboxamide] |
| 0.91 | – | CSc1ccc(NC(=O)Nc2ccc3c(c2)C(=O)N(CCc2c[nH]cn2)C(c2ccc(Cl)cn2)C3)cc1 (stereo not drawn) [Compound 32, 1-{3-(5-chloropyridin-2-yl)-2-[2-(1H-imidazol-4-yl)ethyl]-1-oxo-1,2,3,4-tetrahydroisoquinolin-7-yl}-3-[4-(methylsulfanyl)phenyl]urea] |
| 0.99 | – | CS(=O)(=O)c1ccc(NC(=O)Nc2ccc3c(c2)C(=O)N(CCc2c[nH]cn2)C(c2ccc(Cl)cn2)C3)cc1 (stereo not drawn) [Compound 33, 1-{3-(5-chloropyridin-2-yl)-2-[2-(1H-imidazol-4-yl)ethyl]-1-oxo-1,2,3,4-tetrahydroisoquinolin-7-yl}-3-[4-(methylsulfonyl)phenyl]urea] |
| 0.97 | – | CSc1ccc(NC(=O)Nc2ccc3c(c2)C(=O)N(CCCN)[C@@H](c2ccc(C#N)cc2)C3)cc1 [Compound 36, (+)1-[(3R)-2-(3-aminopropyl)-3-(4-cyanophenyl)-1-oxo-1,2,3,4-tetrahydroisoquinolin-7-yl]-3-[4-(methylsulfanyl)phenyl]urea] |
| 0.85 | – | CSc1ccc(NC(=O)C2C(C(N)=O)C3CCC2C3(C)C)cc1 (stereo not drawn) [Compound 37, 7,7-dimethyl-N-[4-(methylsulfanyl)phenyl]bicyclo [2.2.1]heptane-2,3-dicarboxamide] |
| 0.95 | – | NC(=O)C1C(C(=O)Nc2ccc(I)cc2)C2CCC1C21CC1 (stereo not drawn) [Compound 38, N-(4-iodophenyl)spiro[bicyclo[2.2.1]heptane-7,1′-cyclopropane]-2,3-dicarboxamide] |
| 0.90 | – | NC(=O)C1C(C(=O)Nc2ccc(I)cc2)C2C=CC1C21CC1 (stereo not drawn) [Compound 39, N-(4-iodophenyl)spiro[bicyclo[2.2.1]heptane-7,1′-cyclopropane]-5-ene-2,3-dicarboxamide] |
| 0.91 | – | C[S+]([O-])c1ccc(NC(=O)Nc2ccc3c(c2)C(=O)N(CCCNC(=O)OC(C)(C)C)[C@@H](c2ccc(C#N)cc2)C3)cc1 (stereo partly drawn) [Compound 40, (+) tert-butyl {3-[(3R)-3-(4-cyanophenyl)-7-({[4-(methylsulfinyl)phenyl]carbamoyl}amino)-1-oxo-3,4-dihydroisoquinolin-2(1H)-yl]propyl}carbamate] |
